The text below walks through data of patent publication US11970476B1, “6′-(4-chlorophenyl)-2′-alkoxy-3,4′-bipyridine-3′-carbonitriles as antimicrobial compounds” (KING FAISAL UNIVERSITY, priority 2023, dated 2024).

What all share (assay type): cell-based
Assay [1] concerns Chrysosporium keratinophilum. The assay is described as follows: Agar plate disc-diffusion, antifungal inhibition zone. The conditions noted are these: 72 hours, DMSO control zone subtracted. The method, then:
(§1) The agar plate disc-diffusion method was applied. Sterilized filter papers (6 mm in diameter) were wetted with 10 μL of a solution of 6′-(4-chlorophenyl)-2′-ethoxy-3,4′-bipyridine-3′-carbonitrile (4) or 6′-(4-chlorophenyl)-2′-methoxy-3,4′-bipyridine-3′-carbonitrile (5) to be tested, containing […], and the discs were allowed to air dry. The discs were then placed onto the surface of agar plates (nutrient agar for bacteria and Sabouraud's dextrose agar for fungi) seeded with the test organism. Each plate contained 15 mL of the agar medium, previously seeded with 0.2 mL of the broth culture of each organism pregrown for 18 hours. The plates were incubated at 37° C. for 48 hours, and 72 hours for fungi. The inhibition zones were measured in mm. Discs impregnated with DMSO were used as a control, and its inhibition zone was subtracted from the tested compound actual inhibition zone.
(§2) The results of the antimicrobial testing can be observed in Tables 1 and 2, below, using ciprofloxacin as a reference.
Background: Agar diffusion results depend on both activity and mobility in agar.

Assay [2] deals with Aspergillus flavus. Described as above. The conditions noted are these: 72 hours, DMSO control zone subtracted. The method, then:
as §1, §2

In assay [3] the test system is Bacillus cereus. As to the kind of experiment: Agar plate disc-diffusion, antibacterial inhibition zone. The note with it: DMSO control zone subtracted. The method, then: as §1, §2
For assay [4], the system named is Pseudomonas aeruginosa. The description is as above. The note with it: DMSO control zone subtracted. The method, then: as §1, §2
Assay [5] concerns Staphylococcus aureus. The assay is described as above. The note with it: DMSO control zone subtracted. The protocol:
as §1, §2

Assay [6] relates to Escherichia coli. The description is as above. The note with it: DMSO control zone subtracted. The method, then: as §1, §2
For assay [7], the system named is different microbes. The assay is described as follows: Antimicrobial testing, overall statement on Tables 1 and 2. The conditions noted are these: summary of Tables 1 and 2, bacteria and fungi. The protocol:
as §1
Their antibacterial activity was screened against gram positive bacteria namely Bacillus cereus and Staphylococcus aureus and gram-negative bacterial strains namely Pseudomonas aeruginosa and Escherichia coli, while their antifungal activity was screened against Aspergillus flavus and Chrysosporium keratinophilum.

Setting [8] is: A = concentration of comp. = 10,000 μL.
[9] abbreviates: B = concentration of comp. = 30,000 μL.
[10] abbreviates: C = concentration of comp. = 50,000 μL.

For the compound `CCOc1nc(-c2ccc(Cl)cc2)cc(-c2cccnc2)c1C#N` [Compound 4, 6′-(4-chlorophenyl)-2′-ethoxy-3,4′-bipyridine-3′-carbonitrile], the inhibition zone in assay [1] (setting [8]) stood at 24 mm; in assay [1] (setting [9]), 29 mm; in assay [1] (setting [10]) it was 42 mm; in assay [2] (setting [8]) it was 21 mm; in assay [2] (setting [9]), 26 mm; in assay [2] (setting [10]), 37 mm. The inhibition zone in assay [3] (setting [8]) is 24 mm; in assay [3] (setting [9]), 27 mm; in assay [3] (setting [10]), 39 mm; in assay [4] (setting [8]), 25 mm; in assay [4] (setting [9]), 29 mm; in assay [4] (setting [10]), 39 mm. Further, the inhibition zone is 15 mm in assay [5] (setting [8]); 18 mm in assay [5] (setting [9]); 31 mm in assay [5] (setting [10]); 27 mm in assay [6] (setting [8]); 38 mm in assay [6] (setting [9]); 52 mm in assay [6] (setting [10]). Besides, the “antimicrobial activities (in words)” value in assay [7] is “high antimicrobial activities”.

With `COc1nc(-c2ccc(Cl)cc2)cc(-c2cccnc2)c1C#N` [Compound 5, 6′-(4-chlorophenyl)-2′-methoxy-3,4′-bipyridine-3′-carbonitrile], the inhibition zone in assay [1] (setting [8]) turned out to be 23 mm; in assay [1] (setting [9]), 28 mm; in assay [1] (setting [10]), 41 mm; in assay [2] (setting [8]) it was 25 mm; in assay [2] (setting [9]), 28 mm; in assay [2] (setting [10]) it was 40 mm. Moreover, the inhibition zone in assay [3] (setting [8]) was determined as 26 mm; in assay [3] (setting [9]), 28 mm; in assay [3] (setting [10]), 39 mm; in assay [4] (setting [8]) it was 26 mm; in assay [4] (setting [9]), 30 mm; in assay [4] (setting [10]), 42 mm. Also, the inhibition zone in assay [5] (setting [8]) turned out to be 17 mm; in assay [5] (setting [9]), 24 mm; in assay [5] (setting [10]) it was 30 mm; in assay [6] (setting [8]), 28 mm; in assay [6] (setting [9]) it was 37 mm; in assay [6] (setting [10]), 53 mm. In addition, the “antimicrobial activities (in words)” value in assay [7] is given as “high antimicrobial activities”.

Turning to `O=C(O)c1cn(C2CC2)c2cc(N3CCNCC3)c(F)cc2c1=O` [Cip., ciprofloxacin, reference compound], the inhibition zone in assay [1] (setting [8]) came out at 29 mm; in assay [1] (setting [9]), 30 mm; in assay [1] (setting [10]) it was 53 mm; in assay [2] (setting [8]) it was 29 mm; in assay [2] (setting [9]), 30 mm; in assay [2] (setting [10]), 42 mm. For the same compound, the inhibition zone in assay [3] (setting [8]) is on record as 29 mm; in assay [3] (setting [9]), 30 mm; in assay [3] (setting [10]), 42 mm; in assay [4] (setting [8]), 29 mm; in assay [4] (setting [9]), 30 mm; in assay [4] (setting [10]), 53 mm. In addition, the inhibition zone in assay [5] (setting [8]) stood at 43 mm; in assay [5] (setting [9]), 44 mm; in assay [5] (setting [10]), 53 mm; in assay [6] (setting [8]), 30 mm; in assay [6] (setting [9]) it was 39 mm; in assay [6] (setting [10]), 60 mm.
